Test results from patent publication US10576144B2, “Amino acid and peptide conjugates and conjugation process” (AUCKLAND UNISERVICES LIMITED, priority 2014, dated 2020).
Residues, ends and D or L forms follow the SMILES beside them. *: point of attachment. Ethyl(2-palmitoyloxy) = CCCCCCCCCCCCCCCC(=O)OCC*; Palmitoyl = CCCCCCCCCCCCCCCC(=O)*

Experiments:
human monocytes = assay: Activation of human monocytes in whole blood (CD80 up-regulation, flow cytometry); assay type: cell-based
Protocol: 100 μl of heparinised whole blood (WB) was incubated with 100 nM, 1 μM and 10 μM of each compound, in duplicate, and incubated overnight at 37° C. in a 5% CO2 humidified incubator. […] EMC Microcollections) was used as a positive control. To detect activation of monocytes, WB samples were stained with anti-CD14-FITC, anti-HLA-DR-Alexa700, anti-CD80-PE-Cy7, anti-CD40-PE, anti-CD86-APC, anti-CD16-APC-Cy7 (all from Biolegend) for 20 mins at RT, protected from light. Following incubation, 2 ml of BD FACS lyse (BD Biosciences) was added, incubated for 15 mins at RT, then washed twice with ice cold wash buffer (PBS, 1% Human Serum). Data acquisition was performed on a BD FACS Aria II (Becton Dickinson) and analysed using FlowJo software version 7.6.5 (TreeStar). CD80 receptor expression on monocytes was detected by gating on CD14+ HLADR+ cells.

CD8+ T cell clone 1C11 = assay: CD8+ T cell clone activation assay, NY-ESO-1 118-143 constructs, autologous LCL as APC; assay type: cell-based, human
Protocol: Human CD4+ and CD8+ T cell clones were maintained at a concentration of 1-3×10^6/ml in RPMI 1640 supplemented with Glutamax, Penicillin/Streptomycin and 5% v/v human serum (“RS5”, all reagents from Life Technologie). Media was refreshed 50% v/v twice weekly. RS5 for CD4+ T cell clones was supplemented with IL-7 and IL-21, and RS5 for CD8+ T cell clones was supplemented with IL-7+IL-15 (all cytokines from PeproTech, used at a final concentration of 5 ng/ml).
Epstein-Barr Virus (“EBV”)-producing B95-8 MM cells were grown in RPMI 1640 supplemented with Glutamax, Penicillin/Streptomycin and 10% v/v fetal bovine serum (“RF10”, all reagents from Invitrogen) in T75 flasks (BD Biosciences). EBV-containing medium was collected and centrifuged to pellet non-adherent cells, and the EBV-containing supernatant then filter-sterilised (0.22 μm). 10×10^6 donor Peripheral Blood Mononuclear Cells (“PBMC”) were suspended in 1.5 ml RF10 in aT25 flask (BD Biosciences). 2.5 ml B95-8 cell culture supernatant was added and cells incubated for 2 hours. 1 ml fresh RF10 containing 5% v/v Phytohemaglutanin (“PHA”, Gibco) was then added (1% v/v final concentration). Flasks were monitored for outgrowth of B cell LCL, typically over 4-6 weeks, with transfer to a T75 flask (BD Biosciences) when required. LCL lines were cryopreserved and working stocks maintained in RF10 at 0.5-1.5×10^6/ml.
Donor LCL or MoDC (also referred to herein as antigen presenting cells or “APC”) were incubated for 16 h in RF10+ peptide/construct at desired concentration. In samples where Pam3Cys (“P3C”) and peptide moieties were both present but unconjugated, LCL were pre-treated with P3C for 30 minutes, and media then refreshed with RF10 containing both P3C and peptide. Untreated APC were incubated in RF10 only. APC/construct incubation was performed in 96 well plates (U-bottom, BD Biosciences) or in 48wp (flat bottom, BD Biosciences) depending of the nature of the assay and the numbers of APC required per treatment. Following incubation, APC were washed with RPMI 1640 4 times, to remove unbound construct/P3C. […]

CD4+ T cell clone 1D6 = assay: CD4+ T cell clone activation assay, NY-ESO-1 118-143 constructs, autologous LCL as APC; assay type: cell-based, human; settings: LCL pulsed with construct; 147 tested +/−P3C; 116 and 115 titratable (FIG. 13)
Protocol: Epstein-Barr Virus (“EBV”)-producing B95-8 MM cells were grown in RPMI 1640 supplemented with Glutamax, Penicillin/Streptomycin and 10% v/v fetal bovine serum (“RF10”, all reagents from Invitrogen) in T75 flasks (BD Biosciences). EBV-containing medium was collected and centrifuged to pellet non-adherent cells, and the EBV-containing supernatant then filter-sterilised (0.22 μm). 10×10^6 donor Peripheral Blood Mononuclear Cells (“PBMC”) were suspended in 1.5 ml RF10 in aT25 flask (BD Biosciences). […] Flasks were monitored for outgrowth of B cell LCL, typically over 4-6 weeks, with transfer to a T75 flask (BD Biosciences) when required. […]
Data acquisition was performed using a BD FACSAria II with FACSDiva software, and data analysis was performed using FlowJo software (Treestar). Data were presented as the median fluorescence intensity (MFI)+SD of CD25 and CD134 expression on live clonal cells. […]

CCCCCCCCCCCCCCCC(=O)OCCSC[C@H](NC(C)=O)C(=O)N[C@@H](CO)C(=O)N[C@@H](CCCCN)C(=O)N[C@@H](CCCCN)C(=O)N[C@@H](CCCCN)C(=O)N[C@@H](CCCCN)C(N)=O [compound 22] (Ac-C(Ethyl(2-palmitoyloxy))SKKKK-NH2)
potency of CD80 up-regulation compared to Pam3CSK4 (human monocytes; 10 μM dose, in most donors): equivalent potency to Pam3CSK4 | up-regulation of expression of CD80 on monocytes (human monocytes; all doses tested (100 nM, 1 μM, 10 μM), whole blood of five donors, overnight): strongly upregulated expression of CD80

147 (VPGVLLKEFTVSGNILTIRLTAADHR; C-terminal acid) [compound 147]
T cell activation (CD8+ T cell clone 1C11; 100 nM): No or negligible T cell activation | T cell activation (CD8+ T cell clone 1C11; 1 μM, with exogenous P3C): 75% | T cell activation (CD8+ T cell clone 1C11; 1 μM, without exogenous P3C): 60% | response of clone 1D6 (CD4+ T cell clone 1D6): does not respond

CCCCCCCCCCCCCCCC(=O)SC[C@H](N)C(=O)N[C@@H](CO)C(=O)N[C@@H](CCCCN)C(=O)N[C@@H](CCCCN)C(=O)N[C@@H](CCCCN)C(=O)N[C@@H](CCCCN)C(N)=O [compound 20] (H-C(Palmitoyl)SKKKK-NH2)
potency of CD80 up-regulation compared to 22 and 26 (human monocytes; in three donors): lower potency than 22 and 26
